{
  "source": "patent US20090247646A1",
  "about": "“USE OF RESVERATROL AND DERIVATIVES THEREOF FOR PROMOTING THE WELLNESS STATE IN MAMMALS” (priority 2006, published 2009)",
  "test_system": "gene expression profile of heart, output variable Age",
  "assay": "Classification of gene expression profile for age (Young/Old) using supervised learning, Support Vector Machine",
  "type": "in vivo, mice",
  "experimental": "Male B6C3F, mice (6-7 weeks of age) were purchased from Harlan Sprague Dawley. Mice were housed singly and provided water ad libitum. The control group (OC, N=5) was fed 98 kcal/week of modified AIN-93M semi-purified diet (Bio-serv, Frenchtown, N.J.), which provides approximately 15% fewer calories than the average ad libitum dietary intake. The treatment group (RES, N=5) was fed the same caloric intake as controls, but were supplemented with resveratrol 50 mg/kg diet (w/w) (3,4′,5-Trihydroxy-trans-stilbene; Sigma) from 14 months of age. Animals (OC and RES) were sacrificed at 30 months of age. Young animals were sacrificed at 5 months of age (YC, N=5). Hearts from all abovementioned groups were collected, immediately frozen in liquid nitrogen and stored at −80° C. until analysis.\nTotal RNA was extracted from frozen tissue by using TRIZOL reagent (Life Technologies, Grand Island, N.Y.). Polyadenylate [poly(A)^+] RNA was purified from total RNA with oligo-dT-linked oligotex resin (Qiagen, Valencia, Calif.). […]\nFor the classification analysis, supervised learning using Support Vector Machine (SVM) was performed based on supplied training data, “Young (YC)” and “Old (OC)” groups, to find rules for predicting the output variable “Age”. […] Results from the resveratrol group were then analysed using the Classification function for prediction of the output variable, “Age”. […]",
  "data": [
    {"smiles": "Oc1ccc(/C=C/c2cc(O)cc(O)c2)cc1", "note": "[resveratrol, 3,4′,5-Trihydroxy-trans-stilbene]", "values": [
      {"measurement": "Classification of chips for output variable Age", "setting": "all 4 chips of resveratrol group", "value": "classified as Young"},
      {"measurement": "Average of g (mean classification output of group)", "setting": "mean of 4 chips of the RES group, YC 0.9998575, OC −1.023992", "value": 0.3486}
    ]}
  ]
}
